Experimental data taken from patent publication US9073892B2, “Indazolyl triazol derivatives” (Merck Serono S.A., priority 2010, dated 2015).
pIC50: −log10 of the molar value. Counter-ions that a name gives are not always drawn.

System: T1, IRAK1/4 human
T1 construct: fused on or other part: His tag and TEV cleavage site at the N-terminus
Experiment: IRAK1/4 phosphorylation IC50 (enzymatic assay, table 2)
Format: biochemical
Conditions: human IRAK1/4 phosphorylation
Method in brief: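 His-TEV-tagged human IRAK-1 or IRAK-4 (IRAK-4 with STK1-biotin peptide) was incubated in 384-well plates with ATP and compounds in DMSO from 20 µM to 1 nM, with 2% DMSO controls. The buffer was Hepes pH7.0 50 mM with MgCl2, DTT, EGTA and BSA, and reactions ran 2 or 3 hours. Inhibition was reported as IC50.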

pIC50 | SMILES
5.30 to 6.00 | NCc1ccc(-n2cc(-c3n[nH]c4ccccc34)nn2)cc1 [Example 12, 1-{4-[4-(1H-indazol-3-yl)-1H-1,2,3-triazol-1-yl]phenyl}methanamine]
5.30 to 6.00 | O=C(NCc1ccc(-n2cc(-c3n[nH]c4ccccc34)nn2)cc1)C1CCCC1 [Example 13, N-{4-[4-(1H-indazol-3-yl)-1H-1,2,3-triazol-1-yl]benzyl}cyclopentanecarboxamide]
5.30 to 6.00 | O=C(CN1CCOCC1)NCc1ccc(-n2cc(-c3n[nH]c4ccccc34)nn2)cc1 [Example 16, N-{4-[4-(1H-indazol-3-yl)-1H-1,2,3-triazol-1-yl]benzyl}-2-morpholin-4-ylacetamide]
5.30 to 6.00 | O=C(NCc1ccc(-n2cc(-c3n[nH]c4ccccc34)nn2)cc1)C1CCOCC1 [Example 17, N-{4-[4-(1H-indazol-3-yl)-1H-1,2,3-triazol-1-yl]benzyl}tetrahydro-2H-pyran-4-carboxamide]
6.00 to 7.00 | O=C(Cc1ccc(-n2cc(-c3n[nH]c4ccccc34)nn2)cc1)N1CCOCC1 [Example 18, 3-{1-[4-(2-morpholin-4-yl-2-oxoethyl)phenyl]-1H-1,2,3-triazol-4-yl}-1H-indazole]
5.30 to 6.00 | c1ccc2c(-c3cn(-c4ccc(N5CCOCC5)nc4)nn3)n[nH]c2c1 [Example 20, 3-[1-(6-morpholin-4-ylpyridin-3-yl)-1H-1,2,3-triazol-4-yl]-1H-indazole]
5.30 to 6.00 | CN1CCN(C(=O)CCc2ccc(-n3cc(-c4n[nH]c5ccccc45)nn3)cc2)CC1 [Example 24, 3-(1-{4-[3-(4-methylpiperazin-1-yl)-3-oxopropyl]phenyl}-1H-1,2,3-triazol-4-yl)-1H-indazole]
6.00 to 7.00 | CS(=O)(=O)N1CCN(C(=O)c2ccc(-n3cc(-c4n[nH]c5ccccc45)nn3)cc2)CC1 [Example 41, 3-[1-(4-{[4-(methylsulfonyl)piperazin-1-yl]carbonyl}phenyl)-1H-1,2,3-triazol-4-yl]-1H-indazole]
6.00 to 7.00 | O=C(NCC1CCCO1)c1ccc(-n2cc(-c3n[nH]c4ccccc34)nn2)cc1 (stereo not shown) [Example 45, 4-[4-(1H-indazol-3-yl)-1H-1,2,3-triazol-1-yl]-N-(tetrahydrofuran-2-ylmethyl)benzamide]
6.00 to 7.00 | CCN1CCCC1CNC(=O)c1ccc(-n2cc(-c3n[nH]c4ccccc34)nn2)cc1 (stereo not shown) [Example 47, N-[(1-ethylpyrrolidin-2-yl)methyl]-4-[4-(1H-indazol-3-yl)-1H-1,2,3-triazol-1-yl]benzamide]
6.00 to 7.00 | CC1CCCCN1CCCNC(=O)c1ccc(-n2cc(-c3n[nH]c4ccccc34)nn2)cc1 (stereo not shown) [Example 56]
6.00 to 7.00 | N#CCCN1CCN(C(=O)c2ccc(-n3cc(-c4n[nH]c5ccccc45)nn3)cc2)CC1 [Example 57, 3-(4-(4-[4-(1H-indazol-3-yl)-1H-1,2,3-triazol-1-yl]benzoyl}piperazin-1-yl)propanenitrile]
6.00 to 7.00 | O=C(NCCCN1CCOCC1)c1cccc(-n2cc(-c3n[nH]c4ccccc34)nn2)c1 [Example 58, 3-[4-(1H-indazol-3-yl)-1H-1,2,3-triazol-1-yl]-N-(3-morpholin-4-ylpropyl)benzamide]
6.00 to 7.00 | CCC1CCCCN1CCCNC(=O)c1ccc(-n2cc(-c3n[nH]c4ccccc34)nn2)cc1 (stereo not shown) [Example 59, N-[3-(2-ethylpiperidin-1-yl)propyl]-4-[4-(1H-indazol-3-yl)-1H-1,2,3-triazol-1-yl]benzamide]
5.30 to 6.00 | O=C(NCCCN1CCCC1=O)c1ccc(-n2cc(-c3n[nH]c4ccccc34)nn2)cc1 [Example 61, 4-[4-(1H-indazol-3-yl)-1H-1,2,3-triazol-1-yl]-N-[3-(2-oxopyrrolidin-1-yl)propyl]benzamide]
5.30 to 6.00 | O=C(CCc1cccc(-n2cc(-c3n[nH]c4ccccc34)nn2)c1)N1CCCC1 [Example 87, 3-{1-[3-(3-oxo-3-pyrrolidin-1-ylpropyl)phenyl]-1H-1,2,3-triazol-4-yl}-1H-indazole]
6.00 to 7.00 | CN1CCCC1CCNC(=O)c1ccc(-n2cc(-c3n[nH]c4ccccc34)nn2)cc1 (stereo not shown) [Example 90, 4-[4-(1H-indazol-3-yl)-1H-1,2,3-triazol-1-yl]-N-[2-(1-methylpyrrolidin-2-yl)ethyl]benzamide]
5.30 to 6.00 | O=C(c1ccc(-n2cc(-c3n[nH]c4ccccc34)nn2)c(F)c1)N1CCOCC1 [Example 102, 3-{1-[2-fluoro-4-(morpholin-4-ylcarbonyl)phenyl]-1H-1,2,3-triazol-4-yl}-1H-indazole]
6.00 to 7.00 | O=C(c1ccc(-n2cc(-c3n[nH]c4ccccc34)nn2)cc1)N(CCO)C1CCCCC1 [Example 107, N-cyclohexyl-N-(2-hydroxyethyl)-4-[4-(1H-indazol-3-yl)-1H-1,2,3-triazol-1-yl]benzamide]
5.30 to 6.00 | CN1CCC(NC(=O)c2ccc(-n3cc(-c4n[nH]c5ccccc45)nn3)cc2)CC1 [Example 116, 4-[4-(1H-indazol-3-yl)-1H-1,2,3-triazol-1-yl]-N-(1-methylpiperidin-4-yl)benzamide]
6.00 to 7.00 | CCC(O)CNC(=O)c1ccc(-n2cc(-c3n[nH]c4ccccc34)nn2)cc1 (stereo not shown) [Example 119, N-(2-hydroxybutyl)-4-[4-(1H-indazol-3-yl)-1H-1,2,3-triazol-1-yl]benzamide]
6.00 to 7.00 | O=C(c1ccc(-n2cc(-c3n[nH]c4ccc(Br)cc34)nn2)cc1)N1CCOCC1 [Example 122, 5-bromo-3-{1-[4-(morpholin-4-ylcarbonyl)phenyl]-1H-1,2,3-triazol-4-yl}-1H-indazole]
6.00 to 7.00 | FCCN1CCC(c2ccc(-n3cc(-c4n[nH]c5ccccc45)nn3)cc2)CC1 [Example 133, 3-(1-{4-[1-(2-fluoroethyl)piperidin-4-yl]phenyl}-1H-1,2,3-triazol-4-yl)-1H-indazole]
6.00 to 7.00 | CC(=O)N1CCC(c2ccc(-n3cc(-c4n[nH]c5ccccc45)nn3)cc2)CC1 [Example 134, 3-{1-[4-(1-acetylpiperidin-4-yl)phenyl]-1H-1,2,3-triazol-4-yl}-1H-indazole]

Continued, molecule first:

SMILES | pIC50
c1ccc2c(-c3cn(-c4ccc([C@@H]5C[C@H]6CC[C@@H](C5)N6C5CCCCC5)cc4)nn3)n[nH]c2c1 (single isomer, unassigned) [Example 151, 3-(1-{4-[(3-exo)-8-cyclohexyl-8-azabicyclo[3.2.1]oct-3-yl]phenyl}-1H-1,2,3-triazol-4-yl)-1H-indazole] | > 7.00
c1ccc2c(-c3cn(-c4ccc([C@H]5C[C@H]6CC[C@@H](C5)N6C5CCCCC5)cc4)nn3)n[nH]c2c1 (single isomer, unassigned) [Example 152, 3-(1-{4-[(3-endo)-8-cyclohexyl-8-azabicyclo[3.2.1]oct-3-yl]phenyl}-1H-1,2,3-triazol-4-yl)-1H-indazole] | 6.00 to 7.00
CCN(CC)CCNC(=O)c1ccc(-n2cc(-c3n[nH]c4ccccc34)nn2)cc1 [Example 46, N-[2-(diethylamino)ethyl]-4-[4-(1H-indazol-3-yl)-1H-1,2,3-triazol-1-yl]benzamide] | 6.00 to 7.00
O=C(NCc1cccc(F)c1)c1ccc(-n2cc(-c3n[nH]c4ccccc34)nn2)cc1 [Example 62, N-(3-fluorobenzyl)-4-[4-(1H-indazol-3-yl)-1H-1,2,3-triazol-1-yl]benzamide] | 5.30 to 6.00
O=C(NCCCN1CCCCC1)c1cccc(-n2cc(-c3n[nH]c4ccccc34)nn2)c1 [Example 63, 3-[4-(1H-indazol-3-yl)-1H-1,2,3-triazol-1-yl]-N-(3-piperidin-1-ylpropyl)benzamide] | 5.30 to 6.00
CN(CCNC(=O)c1cccc(-n2cc(-c3n[nH]c4ccccc34)nn2)c1)C1CCCCC1 [Example 64, N-{2-[cyclohexyl(methyl)amino]ethyl}-3-[4-(1H-indazol-3-yl)-1H-1,2,3-triazol-1-yl]benzamide] | 5.30 to 6.00
COCCNC(=O)c1cccc(-n2cc(-c3n[nH]c4ccccc34)nn2)c1 [Example 65, 3-[4-(1H-indazol-3-yl)-1H-1,2,3-triazol-1-yl]-N-(2-methoxyethyl)benzamide] | 5.30 to 6.00
CC(C)N1CCN(C(=O)c2cccc(-n3cc(-c4n[nH]c5ccccc45)nn3)c2)CC1 [Example 66, 3-(1-{3-[(4-isopropylpiperazin-1-yl)carbonyl]phenyl}-1H-1,2,3-triazol-4-yl)-1H-indazole] | 5.30 to 6.00
O=C(c1cccc(-n2cc(-c3n[nH]c4ccccc34)nn2)c1)N1CCCCC1 [Example 67, 3-{1-[3-(piperidin-1-ylcarbonyl)phenyl]-1H-1,2,3-triazol-4-yl}-1H-indazole] | 5.30 to 6.00
CC(C)NC(=O)c1cccc(-n2cc(-c3n[nH]c4ccccc34)nn2)c1 [Example 68, 3-[4-(1H-indazol-3-yl)-1H-1,2,3-triazol-1-yl]-N-isopropylbenzamide] | 5.30 to 6.00
O=C(c1cccc(-n2cc(-c3n[nH]c4ccccc34)nn2)c1)N1CCCC(CN2CCCC2)C1 (stereo not shown) [Example 69, 3-[1-(3-{[3-(pyrrolidin-1-ylmethyl)piperidin-1-yl]carbonyl}phenyl)-1H-1,2,3-triazol-4-yl]-1H-indazole] | 5.30 to 6.00
CN1CCN(C(=O)Cc2ccc(-n3cc(-c4n[nH]c5ccccc45)nn3)cc2)CC1 [Example 70] | 6.00 to 7.00
C1=C(c2ccc(-n3cc(-c4n[nH]c5ccccc45)nn3)cc2)CCNC1 [Example 131, hydrochloride] | 6.00 to 7.00
Fc1ccc2c(-c3cn(-c4ccc(C5CCN(CCC(F)(F)F)CC5)cc4)nn3)n[nH]c2c1 [Example 135, 6-fluoro-3-(1-{4-[1-(3,3,3-trifluoropropyl)piperidin-4-yl]phenyl}-1H-1,2,3-triazol-4-yl)-1H-indazole] | 6.00 to 7.00
OC1CNCCC1c1ccc(-n2cc(-c3n[nH]c4ccccc34)nn2)cc1 (stereo not shown) [Example 137, 4-{4-[4-(1H-indazol-3-yl)-1H-1,2,3-triazol-1-yl]phenyl}piperidin-3-ol hydrochloride] | 6.00 to 7.00
CC(C)=Cc1ccc2[nH]nc(-c3cn(-c4ccc(C(=O)N5CCC(N(C)C)CC5)cc4)nn3)c2c1 [Example 138, N,N-dimethyl-1-(4-{4-[5-(2-methylprop-1-en-1-yl)-1H-indazol-3-yl]-1H-1,2,3-triazol-1-yl}benzoyl)piperidin-4-amine] | 6.00 to 7.00
